Laboratory results reported in patent publication US10202391B2, “Chemical compounds” (AstraZeneca AB, priority 2015, dated 2019).

Key:
Assay type in all cases: cell-based, human
A549 cell line = experiment: Combination cell growth inhibition (Sytox Green, Loewe synergy), A549; conditions: Example 18 with selumetinib, 6x6 dosing matrix 0-10 μmol/L, 3 days, Loewe model, average of three or more experiments
Description: (§1) A549 is a human non small cell lung cancer line carrying an oncogenic mutation in the KRAS gene (G12S). H2122 is a human non small cell lung cancer line carrying an oncogenic mutation in the KRAS gene (G12C). H2009 is a human non small cell lung cancer line carrying an oncogenic mutation in the KRAS gene (G12A). Calu6 is a human non small cell lung cancer line carrying mutation in the KRAS ([…]) gene. All cell lines were obtained from the American Type Culture Collection.
(§2) All cell line were maintained at 37° C. and 5% CO2 in a humidified atmosphere and grown in RPMI-1640 growth media supplemented with 10% FBS and 2 mmol/L glutamine. […]
(§3) Cells were seeded in 384-well black, clear bottomed plates (Greiner Bio-One, Stonehouse, UK), cultured for 18-24 hours and treated with increasing concentrations of Example 18 and selumetinib (0-10 μmol/L) in a 6×6 dosing matrix. […] After 3 days of treatment, live cell number was determined using a Sytox Green endpoint as described previously (“Davies B R, Greenwood H, Dudley P, et al: Preclinical pharmacology of AZD5363, an inhibitor of AKT: Pharmacodynamics, antitumor activity, and correlation of monotherapy activity with genetic background. Mol Cancer Ther 11(4):873-87, 2012”). […] Cells were then permeabilised by the overnight addition of saponin (0.03% final concentration, diluted in TBS-EDTA buffer) and a total cell count measured. […]

H2122 cell line = experiment: Combination cell growth inhibition (Sytox Green, Loewe synergy), H2122; conditions: Example 18 with selumetinib, 6x6 dosing matrix 0-10 μmol/L, 3 days, Loewe model, average of three or more experiments
Description: as §1, §2, §3

Calu6 cell line = experiment: Combination cell growth inhibition (Sytox Green, Loewe synergy), Calu6; conditions: Example 18 with selumetinib, 6x6 dosing matrix 0-10 μmol/L, 3 days, Loewe model, average of three or more experiments
Description: as §1, §2, §3

[1] = system: panel of cancer cell lines with KRAS mutations; experiment: Cell growth inhibition, monotherapy, panel of KRAS mutant lines; conditions: A549, H2122, H2009, Calu6; 3 days of treatment
Description: as §1, §2, §3

`COC[C@H]1Cn2cc(-c3nc(Nc4ccnn4C)ncc3C)nc2C(=O)N1Cc1ccc(F)c(F)c1` [Example 18, (R)-7-(3,4-Difluorobenzyl)-6-(methoxymethyl)-2-(5-methyl-2-((1-methyl-1H-pyrazol-5-yl)amino)pyrimidin-4-yl)-6,7-dihydroimidazo[1,2-a]pyrazin-8(5H)-one] was tested, and the Synergy score (A549 cell line) was 25, the Synergy score (H2122 cell line) was 14.3 and the Synergy score (Calu6 cell line) was 3. The “cell growth inhibition as monotherapy” value [1] was “can inhibit the growth of a panel of cancer cell lines with KRAS mutations as a monotherapy”.
